One block for each compound: values may come before it.
Tests used:
[1] = molecular target: T1, NLuc (NanoLuc) (Oplophorus gracilirostris, UniProt Q9GV45, A31E/Q38R/Q45L/L54V/A60N/K70R/V71I/A81I/F95D/L99Q/M102K/I117V/P142E/Q151K/Y165I/N193R); experiment: bioluminescence spectra, COS-7 lysate; format: biochemical; details: substrate solution […] in PBS
T1 construct: engineered NanoLuc variant of the 19 kDa subunit, expressed from pcDNA3.1(+) in COS-7, mostly cytosolic

[2] = molecular target: T2, LSSmNep-GR5GS-NLuc (GR HLBD) (Homo sapiens, UniProt P04150); experiment: NIR-BRET, COS-7 stably expressing single-chain probe; format: cell-based; details: live cells stimulated […] h; DBlueC substrate; […] nm filter
T2 construct: gene NR3C1; stably expressed in COS-7
T2 sequence (P04150 486-777): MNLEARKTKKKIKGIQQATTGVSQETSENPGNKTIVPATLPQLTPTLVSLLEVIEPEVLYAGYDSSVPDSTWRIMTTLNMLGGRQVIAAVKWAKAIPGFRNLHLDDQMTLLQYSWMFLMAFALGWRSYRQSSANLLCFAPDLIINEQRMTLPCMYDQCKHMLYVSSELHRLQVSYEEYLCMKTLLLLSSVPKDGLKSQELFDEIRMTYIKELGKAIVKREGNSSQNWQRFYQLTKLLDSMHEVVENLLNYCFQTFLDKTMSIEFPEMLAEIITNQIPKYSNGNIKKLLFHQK

[3] = molecular target: T1, NLuc (NanoLuc); experiment: bioluminescence imaging and spectra, COS-7; format: cell-based; details: live cells and lysate; […] substrate in PBS

T1 sequence (Q9GV45 28-196 with the stated changes): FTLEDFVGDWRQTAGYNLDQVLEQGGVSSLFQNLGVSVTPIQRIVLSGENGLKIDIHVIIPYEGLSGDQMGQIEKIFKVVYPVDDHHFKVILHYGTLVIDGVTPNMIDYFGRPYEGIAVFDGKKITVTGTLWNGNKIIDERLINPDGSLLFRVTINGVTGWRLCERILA

SMILES: Oc1ccc(Cc2nc3c(Cc4ccccc4)nc(-c4ccc(O)cc4)cn3c2O)cc1 [nCTZ, native coelenterazine]
bioluminescence spectra, COS-7 lysate [1]: The nCTZ was commonly bright among all the tested marine luciferases

fold NIR-BRET intensity at 10^-6 M [2]: 1.3 fold
SMILES: C[C@]12CCC(=O)C=C1CC[C@@H]1[C@@H]2[C@@H](O)C[C@@]2(C)[C@H]1CC[C@]2(O)C(=O)CO [cortisol]

SMILES: Oc1c(Cc2ccccc2)nc2c(Cc3ccccc3)nc(-c3ccccc3)cn12 [DBlueC, DeepBlueC]
bioluminescence imaging and spectra, COS-7 [3]: DBlueC and nCTZ were exclusively bright with NLuc and ALuc47, respectively

Reference: paper PMC9820568, “Near-Infrared Imaging of Steroid Hormone Activities Using Bright BRET Templates” (International Journal of Molecular Sciences, 2022)
